Experiments:
[1] = test system: vaccinia virus expressing a reverse transcriptase protein of HIV (vCF21); parameters: species or system HHD-2 mice; conditions: mouse, in vivo
[2] = test system: vaccinia virus expressing a β-galactosidase protein (vSC8); parameters: species or system HHD-2 mice; conditions: mouse, in vivo

YLYQYMDDV
protection against vCF21 infection [1]: only partially protected
protection against vaccinia strain (vSC8) that does not express RT [2]: Neither population of mice displayed protection
